The numbers were not newly measured in paper PMC6260473 (Saudi Pharmaceutical Journal : SPJ, 2018), which cites them from elsewhere.

The data set concerns human colorectal adenocarcinoma cell lined HT29. To be noted: read-out: IC50, cytotoxic effect, ref Nowak et al., 2014.

As a reminder, the IC50 is the concentration at which inhibition is half-maximal. For `COc1ccc(Cn2cnc3c(cc(N4CCOCC4)c4ccccc43)c2=O)cc1` [3-(4-methoxybenzyl)-6-(morpholin-4-yl)benzo[h]quinazolin-4(3H)-one], the half-maximal inhibitory concentration (IC50) is 4.12 µM.
Regarding `N.N.[Cl][Pt][Cl]` [cisplatin], the 50% inhibitory concentration (IC50) was 8.47 µM.
